Experimental data taken from US20250090541A1, “Methods for Treating Neurodegenerative Disorders” (Praetego Inc, priority 2022, published 2025).

Key:
htau mice [1] = test: Intraepidermal nerve fiber (IENF) quantification in footskin, htau mice; assay type: in vivo
Description: A standard measure of associated PNS damage to neuronal tissue and its amelioration is IENF, seen alongside changes in the CNS. […] The amelioration of these PNS effects confirms that PTG-630 readily enters and targets neuronal tissue, whether in the brain or elsewhere in the body.

human tau mice [2] = test: Thermal response to heat (hypoalgesia), human tau mice; assay type: in vivo
Description: (§1) Female and male human tau mice (Jax #005491) were treated daily for 25 weeks with PTG-630 trihydrochloride at 1 and 5 mg/kg in drinking water starting at 10 weeks of age (before cognitive deficits appear).
Tactile and thermal responses, measures of associated damage to the peripheral nervous system (PNS), were assessed at 8, 14, 18 and 24 weeks. hTau mice developed significant tactile allodynia measured with manual von Frey filaments at the 14 weeks time point (FIG. 4).
Human tau mice develop significant hypoalgesia (FIG. 5).

4-hydroxynonal (4-HNE) = test: Lipid peroxidation, 4-HNE Oxiselect ELISA in hippocampus homogenates, htau mice; assay type: in vivo
Description: as §1
Lipid peroxidation was assessed using the 4-hydroxynonal (4-HNE) Oxiselect ELISA in hippocampus homogenates. […] It is believed that damage to neuronal tissue occurs to a significant extent via induction of oxidative stress that leads to lipoxidation, so that amelioration by PTG-630 reflects their efficacy via anti-oxidant mechanisms.

htau mice [3] = test: Motor nerve conduction velocity (NCV), htau mice; assay type: in vivo; settings: htau mice with or without treatment, 8, 16 and 25 weeks
Description: as §1
Motor nerve conduction velocity (NCV) was measured at 8, 16 and 25 weeks after treatment.

PSD95 = test: Western blot of hippocampus, human tau mice: PSD95; assay type: in vivo; settings: 1 and 5 mg/kg, tendency
Description: as §1
Mouse Hippocampus were processed for Western blotting analysis of (A) Drebrin (actin binding protein in dendritic spines, role in neuronal growth, a decrease=contributing factor in the pathogenesis of memory disturbance), (B) PSD95 (a post-synaptic protein, role in the regulation of excitatory synapse maturity), and (C) NeuN (neuronal nuclear antigen, biomarker for neurons, decrease=neuronal loss) (FIG. 3).

human tau mice [4] = test: Barnes maze long-term memory, human tau mice; assay type: in vivo; settings: by week 23 of treatment (between week 19 and 23), male and female combined
Description: The human tau mouse is a model of sporadic dementia that expresses human non-mutant tau (6 isoforms) in the absence of endogenous mouse tau. The model develops age-associated pathology, with hyperphosphorylated tau detected in cell bodies and dendrites by 3 months of age (Andorfer et al., 2003; J Neurochem 86, 582-590, doi:10.1046/j.1471-4159.2003.01879.x). These mice display abnormal spatial learning by 6 months of age and impaired learning in the Morris water maze with memory loss by 12 months of age, as well as memory deficits in the Barnes maze by 6 months of age (Marquez et al, 2021).
as §1
Learning and memory were assessed using the Barnes maze test and the object recognition test at 6-8, 12-13, 18-19 and 24-25 weeks. Corneal nerves were imaged by corneal confocal microscopy (CCM) at week 6, 9, 12, 18 and 25. Data represent male and female results combined, mean±sem.
Using the Barnes maze test, long-term memory was assessed between week 13 and 19 and between week 19 and 23 of treatment (FIG. 1A, B).

[5] = Oral pharmacokinetics and tissue distribution of PTG-630 (blood brain barrier penetration); assay type: in vivo, Sprague-Dawley rats; parameters: AUC(0-t) / AUC(0-inf): concentration or dose not given beside the values; settings: for concentration at 0.5 h: 0.50 h
Description: This was a study in male Sprague-Dawley rats. The primary objective was to assess the IV and PO pharmacokinetics of PTG-630. The secondary objectives were to assess tissue distribution after oral administration of PTG-630 (free base form) and the renal excretion, hepatic extraction efficiency and bioavailability of PTG-630.
Twelve non-cannulated animals were arbitrarily assigned to groups upon arrival and housed together throughout the experiment. The animals were acclimated to their designated housing for at least 24 hours before the first day of dosing. PTG-630 was formulated in 0.5% methyl cellulose and 0.1% Tween 20 in water for injection and administered to animals by mouth (PO) with blood and tissue samples collected at predetermined time points. Right thigh muscle, liver, brain, right sciatic nerve, and right kidney were collected at the terminal time points. These samples were collected and placed into individually labeled tubes and frozen at −20° C. Tissues samples were analyzed for concentration of PTG-630.

[6] = male, Sprague-Dawley, rat, brain, po
[7] = male, Sprague-Dawley, rat, kidney, po
[8] = male, Sprague-Dawley, rat, liver, po
[9] = male, Sprague-Dawley, rat, muscle, po
[10] = male, Sprague-Dawley, rat, plasma, po
[11] = male, Sprague-Dawley, rat, sciatic nerve, po
[12] = male, Sprague-Dawley, rat, Brain, PO, mean
[13] = male, Sprague-Dawley, rat, Kidney, PO, mean
[14] = male, Sprague-Dawley, rat, Liver, PO, mean
[15] = male, Sprague-Dawley, rat, Muscle, PO, mean
[16] = male, Sprague-Dawley, rat, Plasma, PO, mean
[17] = male, Sprague-Dawley, rat, Sciatic Nerve, PO, mean

Cc1ncc(CN2CCOCC2)c(-c2ncc[nH]2)c1O [PTG-630, 4-(1H-imidazol-2-yl)-2-methyl-5-(morpholinomethyl)pyridin-3-ol]
IENF in footskin (htau mice [1]; female mice): No difference was noted | decreased IENF in footskin (htau mice [1]; male mice, 1 mg/kg): significantly (p<0.05) ameliorated | thermal hypoalgesia (human tau mice [2]; 1 mg/kg, remained for the rest of the study): significant by 14 weeks of treatment | thermal hypoalgesia (human tau mice [2]; 5 mg/kg, by 8 weeks of treatment and for the duration of the study): significantly ameliorated | thermal responses to heat (human tau mice [2]; FIG. 5 legend, after 24 weeks of treatment): amelioration of hypoalgesia | 4-HNE levels in hippocampus (4-hydroxynonal (4-HNE); 1 mg/kg): significantly (p<0.01) reduced HINE levels to control levels | 4-HNE levels in hippocampus (4-hydroxynonal (4-HNE); 5 mg/kg): significantly (p<0.01) reduced HINE levels to control levels | Nerve conduction velocity (htau mice [3]): not significantly different from control levels | levels of PSD95 protein in hippocampus (PSD95): dose-dependly ameliorate | long-term memory impairment in Barnes maze (human tau mice [4]): significantly prevented | Concentration ([5]; Brain, 24 h, PO, mean): BLQ | % Extrap ([5]; Brain, PO): 23.7% | Concentration ([5]; Kidney, 24 h, PO, mean): BLQ | % Extrap ([5]; Kidney, PO): 14.0% | Concentration ([5]; Liver, 24 h, PO, mean): BLQ | % Extrap ([5]; Liver, PO): 5.72% | Concentration ([5]; Muscle, 24 h, PO, mean): BLQ | % Extrap ([5]; Muscle, PO): 30.7% | % Extrap ([5]; Plasma, PO): 1.13% | Concentration ([5]; Sciatic Nerve, 24 h, PO, mean): BLQ | detectability in tissues 24 hours post dose ([5]; any tissue except plasma, 24 hours post dose): not detectable | Half-life in brain relative to plasma ([5]; brain vs plasma): 1.3 times | quantifiability in tested tissues ([5]; liver, kidney, brain, sciatic nerve, muscle): quantifiable in all tested tissues | AUC(0-inf) [5, 6]: 6720 ng·h/mL | AUC(0-t) [5, 6]: 5130 ng·h/mL | Cmax [5, 6]: 1990 ng/mL | Tmax [5, 6]: 1 h | half-life [5, 6]: 4.53 h | AUC(0-inf) [5, 7]: 11400 ng·h/mL | AUC(0-t) [5, 7]: 9770 ng·h/mL | Cmax [5, 7]: 3880 ng/mL | Tmax [5, 7]: 1 h | AUC(0-inf) [5, 8]: 22000 ng·h/mL | AUC(0-t) [5, 8]: 20700 ng·h/mL | Cmax [5, 8]: 6350 ng/mL | Tmax [5, 8]: 1 h | AUC(0-inf) [5, 9]: 3820 ng·h/mL | AUC(0-t) [5, 9]: 2650 ng·h/mL | Cmax [5, 9]: 1030 ng/mL | Tmax [5, 9]: 1 h | AUC(0-inf) [5, 10]: 8700 ng·h/mL | AUC(0-t) [5, 10]: 8600 ng·h/mL | Cmax [5, 10]: 1160 ng/mL | Tmax [5, 10]: 1 h | AUC(0-t) [5, 11]: 6550 ng·h/mL | Cmax [5, 11]: 1830 ng/mL | Tmax [5, 11]: 1 h | Kp ([5]; male, Sprague-Dawley, rat, selected tissues vs plasma, po, read-out: exposure in selected tissues relative to exposure in plasma): 3 to 5 | concentration at 0.5 h [5, 12]: 1430 ng/mL | concentration at 1 h [5, 12]: 1990 ng/mL | concentration at 2 h [5, 12]: 450 ng/mL | concentration at 4 h [5, 12]: 1000 ng/mL | concentration at 6 h [5, 12]: 244 ng/mL | concentration at 0.5 h [5, 13]: 2230 ng/mL | concentration at 1 h [5, 13]: 3880 ng/mL | concentration at 2 h [5, 13]: 1510 ng/mL | concentration at 4 h [5, 13]: 1520 ng/mL | concentration at 6 h [5, 13]: 466 ng/mL | concentration at 0.5 h [5, 14]: 5720 ng/mL | concentration at 1 h [5, 14]: 6350 ng/mL | concentration at 2 h [5, 14]: 5080 ng/mL | concentration at 4 h [5, 14]: 2420 ng/mL | concentration at 6 h [5, 14]: 647 ng/mL | concentration at 0.5 h [5, 15]: 775 ng/mL | concentration at 1 h [5, 15]: 1030 ng/mL | concentration at 2 h [5, 15]: 290 ng/mL | concentration at 4 h [5, 15]: 401 ng/mL | concentration at 6 h [5, 15]: 245 ng/mL | concentration at 0.5 h [5, 16]: 930 ng/mL | concentration at 1 h [5, 16]: 1160 ng/mL | concentration at 2 h [5, 16]: 274 ng/mL | concentration at 4 h [5, 16]: 794 ng/mL | concentration at 6 h [5, 16]: 510 ng/mL | concentration at 24 h ([5]; male, Sprague-Dawley, rat, Plasma, 24 h, PO, mean): 18.4 ng/mL | concentration at 0.5 h [5, 17]: 1660 ng/mL | concentration at 1 h [5, 17]: 1830 ng/mL | concentration at 2 h [5, 17]: 510 ng/mL | concentration at 4 h [5, 17]: 989 ng/mL | concentration at 6 h [5, 17]: 690 ng/mL | Tmax ([5]; male, Sprague-Dawley, rat, tissues, comparable to plasma, PO): 1 h
